Publication PMC7576618 (British Journal of Clinical Pharmacology, 2020)
Marks after values point to notes of the source that are not given here.

What was measured:
[1] = MAD study: plasma pharmacokinetics after multiple oral dose titration of TS-134; assay type: in vivo, human; conditions: for AUC0‐tau, mean (CV[%]) / Cmax, mean (CV[%]) / t1/2, mean (CV[%]) / tmax, median: plasma, MAD Day 14, fed
[2] = SAD study: plasma pharmacokinetics after single oral TS-134; assay type: in vivo, human; conditions: for AUC0‐inf, mean (CV[%]) / Cmax, mean (CV[%]) / t1/2, mean (CV[%]) / tmax, median: plasma
[3] = compared with monkeys; cited from earlier work
[4] = SAD Parts A and C, 5 mg fasted (n = 6)
[5] = SAD Parts A and C, 10 mg fasted (n = 4)
[6] = SAD Parts A and C, 10 mg fed (n = 3)
[7] = SAD Parts A and C, 20 mg fasted (n = 3)
[8] = SAD Parts A and C, 20 mg fed (n = 3)

## CC(C)[C@@H]1CC[C@@H](C)C[C@H]1OC(=O)O[C@@H](C)OC(=O)[C@H]1[C@@H]2C[C@H](F)[C@@](N)(C(=O)O)[C@@H]21 [MGS0274]
[1]; MAD, 5–80 mg
  dose proportionality of steady‐state plasma Cmax and AUC: dose proportional increases
[1]; 5 mg (n = 8)
  AUC0‐tau, mean (CV[%]): 14.90 (37.92) h•ng mL^−1
  Cmax, mean (CV[%]): 6.090 (79.22) ng mL^−1
  t1/2, mean (CV[%]): 1.247 (40.98) h
  tmax, median: 60 min
[1]; 10 mg (n = 8)
  AUC0‐tau, mean (CV[%]): 29.40 (23.81) h•ng mL^−1
  Cmax, mean (CV[%]): 13.91 (51.77) ng mL^−1
  t1/2, mean (CV[%]): 1.212 (35.09) h
  tmax, median: 30 min
[1]; 20 mg (n = 8)
  AUC0‐tau, mean (CV[%]): 56.36 (48.86) h•ng mL^−1
  Cmax, mean (CV[%]): 26.92 (66.42) ng mL^−1
  t1/2, mean (CV[%]): 1.567 (39.16) h
  tmax, median: 30 min
[1]; 40 mg (n = 8)
  AUC0‐tau, mean (CV[%]): 122.0 (29.47) h•ng mL^−1
  Cmax, mean (CV[%]): 40.38 (29.69) ng mL^−1
  t1/2, mean (CV[%]): 4.711 (52.68) h
  tmax, median: 60 min
[1]; 60 mg (n = 8)
  AUC0‐tau, mean (CV[%]): 170.0 (23.85) h•ng mL^−1
  Cmax, mean (CV[%]): 95.14 (42.43) ng mL^−1
  t1/2, mean (CV[%]): 7.549 (93.72) h
  tmax, median: 60 min
[1]; 80 mg Cohort 5 (n = 7)
  AUC0‐tau, mean (CV[%]): 142.0 (19.40) h•ng mL^−1
  Cmax, mean (CV[%]): 85.27 (43.68) ng mL^−1
  t1/2, mean (CV[%]): 10.52 (57.99) h
  tmax, median: 60 min
[1]; 80 mg Cohort 6 (n = 6)
  AUC0‐tau, mean (CV[%]): 203.9 (24.30) h•ng mL^−1
  Cmax, mean (CV[%]): 98.55 (37.09) ng mL^−1
  t1/2, mean (CV[%]): 6.810 (23.98) h
  tmax, median: 30 min
[2]; SAD, 10 and 20 mg TS‐134
  reduction of plasma AUC in the fed group (food effect): almost no food effect
  reduction of plasma Cmax in the fed group (food effect): up to 45%
[2]; molar ratio, single and multiple oral administration, all treatment groups
  plasma AUC of MGS0274 as share of the AUC of MGS0008: approximately 3%
[2]; SAD Part B, 10 mg fed (n = 6)
  AUC0‐inf, mean (CV[%]): 36.47 ^e (61.58) h•ng mL^−1
[2]; SAD Part B, 10 mg fed (n = 7)
  Cmax, mean (CV[%]): 13.00 (82.69) ng mL^−1
  t1/2, mean (CV[%]): 1.377 ^e (26.45) h
  tmax, median: 30 min
[2]; [4]
  AUC0‐inf, mean (CV[%]): 23.94 ^c (30.64) h•ng mL^−1
  Cmax, mean (CV[%]): 13.43 (55.44) ng mL^−1
  t1/2, mean (CV[%]): 1.013 ^c (35.22) h
  tmax, median: 30 min
[2]; [5]
  AUC0‐inf, mean (CV[%]): 29.33 (31.92) h•ng mL^−1
  Cmax, mean (CV[%]): 17.88 (40.87) ng mL^−1
  t1/2, mean (CV[%]): 0.8765 (17.66) h
  tmax, median: 60 min
[2]; [6]
  AUC0‐inf, mean (CV[%]): 22.69 (8.60) h•ng mL^−1
  Cmax, mean (CV[%]): 8.137 (16.40) ng mL^−1
  t1/2, mean (CV[%]): 1.505 (7.14) h
  tmax, median: 15 min
[2]; [7]
  AUC0‐inf, mean (CV[%]): 72.09 (50.40) h•ng mL^−1
  Cmax, mean (CV[%]): 49.07 (66.56) ng mL^−1
  t1/2, mean (CV[%]): 1.477 (14.30) h
  tmax, median: 15 min
[2]; [8]
  AUC0‐inf, mean (CV[%]): 84.30 ^d (16.80) h•ng mL^−1
  Cmax, mean (CV[%]): 33.27 (45.09) ng mL^−1
  t1/2, mean (CV[%]): 1.669 ^d (7.05) h
  tmax, median: 30 min
[3]
  hydrolytic activity against MGS0274 in the human liver S9 fraction: comparable to that in monkeys
